The source of these data is US20230373934A1, “ANDROGEN RECEPTOR MODULATORS AND METHODS FOR THEIR USE” (ESSA Pharma, Inc., priority 2022, published 2023).

The structures appear in SMILES notation. Where only a bound is given, the exact number is not on record here.

This assay concerns the target T1, androgen receptor (AR) (Homo sapiens, UniProt P10275, T878A).
T1 construct: endogenous in cells; host or cells: LNCaP
T1 sequence (P10275 1-920 T878A): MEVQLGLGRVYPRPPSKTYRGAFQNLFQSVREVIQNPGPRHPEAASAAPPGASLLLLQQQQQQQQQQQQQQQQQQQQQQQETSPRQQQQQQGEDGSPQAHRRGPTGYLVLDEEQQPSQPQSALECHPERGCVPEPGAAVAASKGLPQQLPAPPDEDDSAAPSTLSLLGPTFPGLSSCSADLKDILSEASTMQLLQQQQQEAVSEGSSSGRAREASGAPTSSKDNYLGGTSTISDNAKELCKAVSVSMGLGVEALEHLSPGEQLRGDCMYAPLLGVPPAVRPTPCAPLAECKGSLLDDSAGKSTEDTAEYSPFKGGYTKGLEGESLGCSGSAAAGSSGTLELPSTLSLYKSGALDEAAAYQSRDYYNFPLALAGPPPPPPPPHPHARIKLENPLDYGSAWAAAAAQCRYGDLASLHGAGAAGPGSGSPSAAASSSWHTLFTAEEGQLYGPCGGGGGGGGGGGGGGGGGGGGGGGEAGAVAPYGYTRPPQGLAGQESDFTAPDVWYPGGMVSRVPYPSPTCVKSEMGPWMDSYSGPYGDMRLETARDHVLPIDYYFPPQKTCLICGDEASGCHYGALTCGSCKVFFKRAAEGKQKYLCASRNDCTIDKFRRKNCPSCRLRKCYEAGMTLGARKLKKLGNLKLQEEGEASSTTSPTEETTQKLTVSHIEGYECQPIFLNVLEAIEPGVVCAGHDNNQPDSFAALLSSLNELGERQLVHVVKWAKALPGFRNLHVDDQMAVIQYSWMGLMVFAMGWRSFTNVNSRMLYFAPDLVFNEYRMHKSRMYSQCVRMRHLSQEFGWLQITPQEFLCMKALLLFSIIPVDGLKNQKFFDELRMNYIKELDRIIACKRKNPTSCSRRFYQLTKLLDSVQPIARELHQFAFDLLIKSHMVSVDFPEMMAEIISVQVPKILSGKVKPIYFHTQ
As to the kind of experiment: Androgen-induced PSA-luciferase assay, Luciferase Assay A (LNCaP transiently transfected with PSA (6.1 kb)-luciferase reporter). In kind it is cell-based. Particulars: LNCaP cells, 1 h pretreatment, R1881 (1 nM) 24 h, read-out: PSA-Luc IC50 Range. The protocol: The PSA (6.1 kb)-luciferase reporter contains functional AREs (androgen response elements) to which AR binds in response to androgen to induce luciferase activity. LNCaP cells were transiently transfected with the PSA (6.1 kb)-luciferase reporter for 24 h, and then pretreated with vehicle (DMSO) or indicated concentration of representative compounds for one hour prior to the addition of synthetic androgen, R1881 (1 nM). After 24 h of incubation with R1881, the cells were harvested, and relative luciferase activities were determined (FIG. 1). To determine the IC50, treatments were normalized to vehicle control activity induced by R1881 (Table 2).
Luciferase Assay A: Cells were lysed using Passive Lysis Buffer (Promega) and then collected into V-bottom 96-well tissue culture plates. Lysates were centrifuged at 4° C. for 5 minutes at 3000 rpm. To measure luminescence of LNCaP cell lysates the Firefly Luciferase Assay System (Promega) was employed, according to manufacturer's protocol. Relative luminescence units (RLU) in cell lysates were detected for 10 seconds using Promega GloMax-Multi Detection Luminometer (Promega). Values were normalized to protein content. GraphPad Prism graphing software was used to calculate IC50 values. Luciferase Assay A was run for all compounds in Table 2 unless otherwise noted below.
Statistical analyses were performed using GraphPad Prism (Version 6.01 for Windows; La Jolla, CA, USA). Comparisons between treatment and control groups were compared using Two-Way ANOVA with post-hoc Dunnett's and Tukey's tests. Differences were considered statistically significant at P values less than 0.05.
For `CC(C)(c1ccc(-c2cnc(CNS(C)(=O)=O)cn2)cc1)c1cc(Cl)c(OCCCl)c(C#N)c1` [Compound A2], the IC50 lay within 500 to 2000 nM.

As for `CC(C)(c1ccc(-c2ccc(CNS(C)(=O)=O)cn2)cc1)c1cc(Cl)c(OCCCl)c(C#N)c1` [Compound A3], the IC50 is 500 to 2000 nM.

With `CC(C)(c1ccc(-c2cnc(CNS(C)(=O)=O)nc2)cc1)c1cc(Cl)c(OCCCl)c(C#N)c1` [Compound A4], the IC50 lay in the range of 500 to 2000 nM.

For the molecule `CC(C)(c1ccc(-c2ncc(CNS(C)(=O)=O)cn2)cc1)c1cc(Cl)c(OCCCl)c(C#N)c1` [Compound A5], the IC50 fell in the range of 500 to 2000 nM.

`CC(C)(c1ccc(-c2ccc(CCNS(C)(=O)=O)nc2)cc1)c1cc(Cl)c(OCCCl)c(C#N)c1` [Compound A6]: the IC50 was less than 500 nM.

Take `CS(=O)(=O)NC1CN(CCc2ccc(Oc3cc(Cl)c(OCCCl)c(C#N)c3)cc2)C1` [Compound A7]: the IC50 is more than 2000 nM.

In the case of `CC(C)(c1ccc(CN2CCC(NS(C)(=O)=O)CC2)cc1)c1cc(Cl)c(OCCCl)c(C#N)c1` [Compound A8], the IC50 is more than 2000 nM.

Turning to `CS(=O)(=O)NC1CCN(Cc2ccc(Oc3cc(Cl)c(OCCCl)c(C#N)c3)cc2)CC1` [Compound A9], the IC50 was more than 2000 nM.

For the molecule `CC(C)(c1ccc(-c2ccc3c(c2)COC32CN(S(C)(=O)=O)C2)cc1)c1cc(Cl)c(OCCCl)c(C#N)c1` [Compound A10], the IC50 is 500 to 2000 nM.

Consider `CC(C)(c1ccc(N2CCN(CCNS(C)(=O)=O)CC2)cc1)c1cc(Cl)c(OCCCl)c(C#N)c1` [Compound A13], for which the IC50 was more than 2000 nM.

In the case of `CC(C)(c1ccc(N2CCOC(CNS(C)(=O)=O)C2)cc1)c1cc(Cl)c(OCCCl)c(C#N)c1` (stereo not drawn) [Compound A14], the IC50 is 500 to 2000 nM.

For `CC(C)(c1ccc(CCN2CC(NS(C)(=O)=O)C2)cc1)c1cc(Cl)c(OCCCl)c(C#N)c1` [Compound A20], the IC50 was more than 2000 nM.

In the case of `CS(=O)(=O)NCc1ccc(-c2ccc(Oc3cc(Cl)c(OCCCl)c(C#N)c3)cc2)cn1` [Compound A21], the IC50 lay in the range of 500 to 2000 nM.

As to `CS(=O)(=O)Nc1cnc2cc(-c3ccc(Oc4cc(Cl)c(OCCCl)c(C#N)c4)cn3)ccc2n1` [Compound A23], the IC50 is more than 2000 nM.

Take `CC(C)(c1ccc(OC[C@]2(C)C[C@@H](NS(C)(=O)=O)C2)cc1)c1cc(Cl)c(OCCCl)c(C#N)c1` [Compound A25]: the IC50 was more than 2000 nM.

For the molecule `CC(C)(c1ccc(OC[C@]2(F)C[C@H](NS(C)(=O)=O)C2)cc1)c1cc(Cl)c(OCCCl)c(C#N)c1` [Compound A26], the IC50 is more than 2000 nM.

`CS(=O)(=O)Nc1cnc2cc(-c3ccc(Nc4cc(Cl)c(OCCCl)c(C#N)c4)cc3)ccc2n1` [Compound A27]: the IC50 was more than 2000 nM.

Take `CC(C)(c1ccc(CCN2CCC(NS(C)(=O)=O)CC2)cc1)c1cc(Cl)c(OCCCl)c(C#N)c1` [Compound A29]: the IC50 is more than 2000 nM.

Take `CS(=O)(=O)NC1CCN(CCc2ccc(Oc3cc(Cl)c(OCCCl)c(C#N)c3)cc2)CC1` [Compound A30]: the IC50 is more than 2000 nM.

In the case of `CC(C)(c1ccc(N2CCOC(CCNS(C)(=O)=O)C2)cc1)c1cc(Cl)c(OCCCl)c(C#N)c1` (stereo not drawn) [Compound A31], the IC50 was more than 2000 nM.

Consider `CC(C)(c1ccc(N2CCOC3(CCN(S(C)(=O)=O)CC3)C2)cc1)c1cc(Cl)c(OCCCl)c(C#N)c1` [Compound A32], for which the IC50 was less than 500 nM.

`CC(C)(c1ccc(O[C@H]2CC[C@H](NS(C)(=O)=O)CC2)cc1)c1cc(Cl)c(OCCCl)c(C#N)c1` [Compound A33]: the IC50 is more than 2000 nM.

On to `CC(C)(c1ccc(CN2CCC(NS(C)(=O)=O)C(F)(F)C2)cc1)c1cc(Cl)c(OCCCl)c(C#N)c1` (stereo not drawn) [Compound A34], for which the IC50 was more than 2000 nM.

Consider `CS(=O)(=O)NC1CCN(Cc2ccc(Oc3cc(Cl)c(OCCCl)c(C#N)c3)cc2)CC1(F)F` (stereo not drawn) [Compound A35], for which the 50% inhibitory concentration (IC50) is more than 2000 nM.

Regarding `CS(=O)(=O)NC1CN(c2ccc(-c3ccc(Oc4cc(Cl)c(OCCCl)c(C#N)c4)cc3)cn2)C1` [Compound A38], the IC50 lay in the range of 500 to 2000 nM.

As to `CC(C)(c1ccc(OC[C@]2(F)C[C@@H](NS(C)(=O)=O)C2)cc1)c1cc(Cl)c(OCCCl)c(C#N)c1` [Compound A39], the IC50 is 500 to 2000 nM.

Regarding `CC(C)(c1ccc(-c2ccnc(N3CC(NS(C)(=O)=O)C3)n2)cc1)c1cc(Cl)c(OCCCl)c(C#N)c1` [Compound A40], the IC50 was more than 2000 nM.

Regarding `CC(C)(c1ccc(-c2cncc(N3CC(NS(C)(=O)=O)C3)n2)cc1)c1cc(Cl)c(OCCCl)c(C#N)c1` [Compound A41], the IC50 was more than 2000 nM.

`CC(C)(c1ccc(OCc2ccnc(NS(C)(=O)=O)n2)cc1)c1cc(Cl)c(OC(F)F)c(C#N)c1` [Compound A42]: the IC50 was 500 to 2000 nM.

As for `CC(C)(c1ccc(-n2cc(N3CC(NS(C)(=O)=O)C3)cn2)cc1)c1cc(Cl)c(OCCCl)c(C#N)c1` [Compound A45], the IC50 was in the range of 500 to 2000 nM.

Take `CC(C)(c1ccc(CN2CC(NS(C)(=O)=O)CC(F)(F)C2)cc1)c1cc(Cl)c(OCCCl)c(C#N)c1` (stereo not drawn) [Compound A46]: the IC50 is more than 2000 nM.

In the case of `CC(C)(c1ccc(N2CCC(N3CC(NS(C)(=O)=O)C3)CC2)cc1)c1cc(Cl)c(OCCCl)c(C#N)c1` [Compound A47], the IC50 was more than 2000 nM.

Turning to `CC(C)(c1ccc(N2CCN(C3CC(NS(C)(=O)=O)C3)CC2)cc1)c1cc(Cl)c(OCCCl)c(C#N)c1` (stereo not drawn) [Compound A48], the IC50 was more than 2000 nM.

Consider `CS(=O)(=O)Nc1cnc2cc(-c3ccc(Oc4cc(Cl)c(OCCCl)c(C#N)c4)cc3)cnc2n1` [Compound A49], for which the IC50 lay in the range of 500 to 2000 nM.

For the molecule `CC(C)(c1ccc(-c2cnc(N3CC(NS(C)(=O)=O)C3)c(F)c2)cc1)c1cc(Cl)c(OCCCl)c(C#N)c1` [Compound A50], the IC50 was less than 500 nM.

`CC(C)(c1ccc(OC[C@]2(C)C[C@H](NS(C)(=O)=O)C2)cc1)c1cc(Cl)c(OCCCl)c(C#N)c1` [Compound A51]: the IC50 is more than 2000 nM.

As to `CC(C)(c1ccc(OCc2ccnc(NS(C)(=O)=O)n2)cc1)c1cc(Cl)c(OC2CCC2)c(C#N)c1` [Compound A52], the IC50 fell in the range of 500 to 2000 nM.

Take `CC(C)(c1ccc(-c2ccc(NC3CN(S(C)(=O)=O)C3)nc2)cc1)c1cc(Cl)c(OCCCl)c(C#N)c1` [Compound A53]: the IC50 was less than 500 nM.

Consider `CC(C)(c1ccc(-c2ccc(N3CCC(NS(C)(=O)=O)C3)nc2)cc1)c1cc(Cl)c(OCCCl)c(C#N)c1` (stereo not drawn) [Compound A54], for which the IC50 was less than 500 nM.

Turning to `CC(C)(c1ccc(-c2ccc(N3CC(CNS(C)(=O)=O)C3)nc2)cc1)c1cc(Cl)c(OCCCl)c(C#N)c1` [Compound A55], the IC50 is less than 500 nM.

Turning to `CC(C)(c1ccc(OCc2ccnc(NS(C)(=O)=O)n2)cc1)c1cc(Cl)c(OC2COC2)c(C#N)c1` [Compound A56], the IC50 was more than 2000 nM.

Turning to `CC(C)(c1ccc(-c2ccc(N3CCC(NS(C)(=O)=O)CC3)nc2)cc1)c1cc(Cl)c(OCCCl)c(C#N)c1` [Compound A58], the IC50 is more than 2000 nM.

For the molecule `CC(C)(c1ccc(-c2ccc(N3CCCC(NS(C)(=O)=O)C3)nc2)cc1)c1cc(Cl)c(OCCCl)c(C#N)c1` (stereo not drawn) [Compound A59], the IC50 was in the range of 500 to 2000 nM.

For `CC(C)(c1ccc(-c2ccc(N3CCN(S(C)(=O)=O)CC3)nc2)cc1)c1cc(Cl)c(OCCCl)c(C#N)c1` [Compound A60], the IC50 lay in the range of 500 to 2000 nM.

As to `CS(=O)(=O)Nc1nc2ccc(-c3ccc(Oc4cc(Cl)c(OCCCl)c(C#N)c4)cc3)cc2o1` [Compound A61], the IC50 is 500 to 2000 nM.

For `CC(C)(c1ccc(OCc2ccnc(NS(C)(=O)=O)n2)cc1)c1cc(Cl)c(OC2CC2)c(C#N)c1` [Compound A62], the IC50 is 500 to 2000 nM.

In the case of `CC(C)(c1ccc(OC[C@H]2CC[C@H](NS(C)(=O)=O)CC2)cc1)c1cc(Cl)c(OCCCl)c(C#N)c1` [Compound A63], the IC50 lay in the range of 500 to 2000 nM.

Consider `CC(C)(c1ccc(OC[C@H]2C[C@H](CNS(C)(=O)=O)C2)cc1)c1cc(Cl)c(OCCCl)c(C#N)c1` [Compound A64], for which the IC50 was in the range of 500 to 2000 nM.
